Experimental data reported in patent EP4745196A1, “RESIN COMPOSITION” (LG Chem, Ltd., priority 2023, dated 2025).

Columns and labels:
[1] = Measurement of pyrolysis temperature by differential scanning calorimeter; format: physicochemical; details: endothermic substance; DSC, heating rate 10°C/min, temperature at maximum heat flow
Description: The endothermic substance may have a pyrolysis temperature of 50°C or more. The pyrolysis temperature of the endothermic substance may be 300°C or less. The pyrolysis temperature may also be referred to as a temperature at which the endothermic substance undergoes an endothermic reaction (endothermic reaction temperature). The pyrolysis may mean that a material is chemically decomposed into a simpler material when heat has been applied thereto. The pyrolysis temperature may mean a temperature at which the pyrolysis occurs. The pyrolysis temperature of the endothermic substance may be 300°C or less, 280°C or less, 260°C or less, 240°C or less, 220°C or less, 200°C or less, 180°C or less, 160°C or less, 140°C or less, 120°C or less, or 100°C or less. The pyrolysis temperature of the endothermic substance may be specifically 50°C or more, 60°C or more, 70°C or more, 80°C or more, 90°C or more, 100°C or more, 120°C or more, 140°C or more, 160°C or more, or 180°C or more. When the endothermic substance is heated to the pyrolysis temperature, it may be decomposed into components constituting the endothermic substance through endotherm. When the pyrolysis temperature of the endothermic substance is within the range, there is no or little endothermic reaction at a normal operating temperature of the battery, and if the thermal runaway of the battery occurs, a cooling effect may be provided to the ignited battery cell through the endothermic reaction (e.g., pyrolysis) of the endothermic substance, and it may be advantageous in terms of delaying thermal transfer to adjacent battery cells. The pyrolysis temperature may be a value measured while increasing the temperature at a rate of 10°C/min using a differential scanning calorimeter (DSC Q2000, TA Corporation). From the differential scanning calorimeter, a graph may be obtained in which the x-axis is temperatures (°C) and the y-axis is heat flows (W/g), and in the graph, the temperature at the point where a heat flow (W/g) value, for example, an absolute value of a heat flow (W/g) is maximum may be set as the pyrolysis temperature.
For endothermic substances used in Examples and Comparative Examples, pyrolysis temperatures were measured while increasing the temperature at a rate of 10°C/min using a differential scanning calorimeter (DSC Q2000, TA Corporation), and the results were described in Table 1. Specifically, 0.2 to 0.5 mg of a sample was placed in a crucible of the differential scanning calorimeter, and then a lid with a single hole penetrated with a punching needle was covered thereon. In a state where the crucible was placed in the center of a press, and a plunger was moved downward by turning a lever until no pressure was further applied downward, the crucible and lid were placed in the differential scanning calorimeter equipment, and a thermal analysis was performed. From the differential scanning calorimeter, a graph with temperature (°C) on the x-axis and heat flow (W/g) on the y-axis could be obtained, and the temperature at the point where the heat flow (W/g) value is maximum in the graph was defined as the pyrolysis temperature.

[2] = endothermic substance; cited from earlier work
[3] = Measurement of solubility in water; format: physicochemical; details: endothermic substance; 20°C, added by 1g to 100 ml of water until precipitate
Description: The endothermic substance may be a water-soluble substance.
Specifically, while the samples were each added by 1g to 100 ml of water at 20°C, the weight of the sample before a precipitate occurred was measured. The presence of the precipitate was visually observed; if no precipitate has occurred, it is observed transparently.

Pyrolysis temperature [1] | Solubility in water [3] | Compound | Thermal conductivity [2]
107 °C | – | O.O.O.O.O.O.[Cl-].[Cl-].[Mg+2] [MgCl2·6H2O] | 0.15~0.96 W/mK
136 °C | – | OB(O)O [Example H3BO3, H3BO3] | 1 or less W/mK
714 °C | – | [Cl-].[Cl-].[Mg+2] [MgCl2] | 0.5 W/mK
330 °C | – | [Mg+2].[OH-].[OH-] [Mg(OH)2] | 42~60 W/mK
297 °C | – | [OH][Al]([OH])[OH] [Al(OH)3] | 26 W/mK
2800 °C | 0 g/100ml | [O]=[Mg] [MgO] | 30 W/mK
90 °C | – | O.O.O.O.O.O.O.O.O.O.O.O.O=S(=O)([O-])[O-].O=S(=O)([O-])[O-].[Al+3].[K+] [KAl(SO4)2·12H2O] | 0.55 W/mK
2000 °C | 0 g/100ml | [O]=[Al][O][Al]=[O] [Al2O3] | 18 W/mK
102 °C | – | O.O.O.O.O.O.O.O.O.O.O.O.O.O.O.O.O.O.O=S(=O)([O-])[O-].O=S(=O)([O-])[O-].O=S(=O)([O-])[O-].[Al+3].[Al+3] [Al2(SO4)3·18H2O] | 0.24~0.31 W/mK

Compound | Pyrolysis temperature [1] | Solubility in water [3] | Thermal conductivity [2]
[Cl-].[Na+] [NaCl] | 801 °C | – | 3.13~3.87 W/mK
[Cl-].[K+] [KCl] | 770 °C | ≥ 30 g/100ml | 6.53 W/mK
